Test results taken from the NIST ThermoML archive (doi:10.1016/j.jct.2005.12.005).

Assays:
[1] = xn = mol fraction of the nth substance listed; details: 101 kPa, Liquid; for speed of sound: Sing-around technique in a fixed-path interferometer
[2] = refractive index (Na D-line) (dimensionless); xn = mol fraction of the nth substance listed; details: 101 kPa, Liquid

CC1CCCCC1 [methylcyclohexane] + Cc1ccccc1
Details	mass density, 298.15 K [kg/m3]	mass density, 303.15 K [kg/m3]	mass density, 308.15 K [kg/m3]	refractive index, 298.15 K	refractive index, 303.15 K	refractive index, 308.15 K	speed of sound, 298.15 K [m/s]	viscosity, 298.15 K [mPa·s]	viscosity, 303.15 K [mPa·s]	viscosity, 308.15 K [mPa·s]
[1], x1 = 0.1027	849.5	844.9	840.3	–	–	–	1304	0.551	0.52	0.49
[1], x1 = 0.205	837.5	832.9	828.3	–	–	–	1295	0.547	0.518	0.489
[1], x1 = 0.3034	826.6	822	817.5	–	–	–	1285	0.548	0.517	0.487
[1], x1 = 0.4043	816	811.5	807	–	–	–	1275	0.556	0.523	0.491
[1], x1 = 0.5031	806.3	801.8	797.3	–	–	–	1266	0.564	0.532	0.5
[1], x1 = 0.5988	797.3	792.8	788.4	–	–	–	1256	0.577	0.544	0.51
[1], x1 = 0.7061	787.8	783.4	779	–	–	–	1246	0.592	0.558	0.524
[1], x1 = 0.8005	780	775.6	771.2	–	–	–	1237	0.614	0.577	0.54
[1], x1 = 0.8984	772.4	768	763.7	–	–	–	1227	0.643	0.603	0.563
[1], x1 = 1	765	760.7	756.3	–	–	–	1217	0.676	0.631	0.59
[2], x1 = 0.1027	–	–	–	1.4838	1.4811	1.4783	–	–	–	–
[2], x1 = 0.205	–	–	–	1.475	1.4723	1.4696	–	–	–	–
[2], x1 = 0.3034	–	–	–	1.4666	1.4641	1.4615	–	–	–	–
[2], x1 = 0.4043	–	–	–	1.4586	1.4561	1.4537	–	–	–	–
[2], x1 = 0.5031	–	–	–	1.4511	1.4486	1.4461	–	–	–	–
[2], x1 = 0.5988	–	–	–	1.4443	1.4418	1.4392	–	–	–	–
[2], x1 = 0.7061	–	–	–	1.4373	1.4347	1.4321	–	–	–	–
[2], x1 = 0.8005	–	–	–	1.4315	1.4289	1.4263	–	–	–	–
[2], x1 = 0.8984	–	–	–	1.4261	1.4234	1.4208	–	–	–	–
[2], x1 = 1	–	–	–	1.4217	1.4192	1.4163	–	–	–	–
